Experimental data as given in patent US11236072B2, “N-[(pyrimidinylamino)propanyl]-,n-[pyridylamino)propanyl]- and n-[(pyrazinylaminol)propanyl]arylcarboxamides” (Boehringer Ingelheim International GmbH, priority 2017, dated 2022).
Like-named read-outs stand apart in the source and are kept apart here.

Key:
human Orexin 1 receptor = biological target: T1, human Orexin 1 receptor (Homo sapiens, UniProt O43613); assay: Assay A: in vitro testing of OX1R potency, OX1R IP1; assay type: cell-based; settings: for Kb: 50 nM Orexin A concentration
T1 sequence (O43613 1-425): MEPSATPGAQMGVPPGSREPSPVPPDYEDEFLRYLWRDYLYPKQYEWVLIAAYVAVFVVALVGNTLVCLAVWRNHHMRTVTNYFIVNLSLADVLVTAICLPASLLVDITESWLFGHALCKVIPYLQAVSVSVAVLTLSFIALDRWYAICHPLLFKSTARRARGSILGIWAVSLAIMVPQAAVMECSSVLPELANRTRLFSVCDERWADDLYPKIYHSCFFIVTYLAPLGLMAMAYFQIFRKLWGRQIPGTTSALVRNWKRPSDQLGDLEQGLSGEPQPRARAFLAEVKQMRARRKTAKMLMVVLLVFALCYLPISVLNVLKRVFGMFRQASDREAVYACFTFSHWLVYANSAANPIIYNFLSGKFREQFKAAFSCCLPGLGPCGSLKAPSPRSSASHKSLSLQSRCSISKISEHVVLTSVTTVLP
Source text: Chem. Genomics 2009, 3, 22-32.
A. In Vitro Testing of OX1R Potency: OX1R IP1

[1] = Assay C: metabolic stability in human liver microsomes (Human MST); assay type: in vitro ADME; settings: pH 7.6; pooled human liver microsomes, 1 μM compound, 37° C.; read-out: Human MST t1/2
Source text: Stability in human liver microsomes refers to the susceptibility of compounds to biotransformation in the context of selecting and/or designing drugs with favorable pharmacokinetic properties. The primary site of metabolism for many drugs is the liver. Human liver microsomes contain the cytochrome P450s (CYPs), and thus represent a model system for studying drug metabolization in vitro. Enhanced stability in human liver microsomes is associated with several advantages, including increased bioavailability and longer half-life, which can enable lower and less frequent dosing of patients. Thus, enhanced stability in human liver microsomes is a favorable characteristic for compounds that are to be used for drugs.
C. Assessment of Metabolic Stability in Human Liver Microsomes (Human MST)
The metabolic stability of the compounds according to the invention may be investigated as follows:
The metabolic degradation of the test compound is assayed at 37° C. with pooled human liver microsomes. The final incubation volume of 100 μL per time point contains TRIS buffer pH 7.6 at room temperature (0.1 M), MgCl2 (5 mM), microsomal protein (1 mg/mL) and the test compound at a final concentration of 1 μM. Following a short pre-incubation period at 37° C., the reactions are initiated by addition of beta-nicotinamide adenine dinucleotide phosphate, reduced form (NADPH, 1 mM), and terminated by transferring an aliquot into solvent after different time points. After centrifugation (10000 g, 5 min), an aliquot of the supernatant is assayed by LC-MS/MS for the amount of parent compound. The half-life (t1/2) is determined by the slope of the semi-logarithmic plot of the concentration-time profile.

human MDR1 P-gp = assay: Assay D: efflux in MDCK cells transfected with the human MDR1 gene; assay type: in vitro ADME, canine; settings: dog; MDCK-MDR1 monolayers, pH 7.4, 37° C.; read-out: MDCK efflux ratio (BA/AB)
Method: The MDCK assay provides information on the potential of a compound to pass the blood brain barrier. Permeability measurements across polarized, confluent MDCK-MDR1 cell monolayers grown on permeable filter supports are used as an in vitro absorption model: apparent permeability coefficients (PE) of the compounds across the MDCK-MDR1 cell monolayers are measured (pH 7.4, 37° C.) in apical-to-basal (AB) and basal-to-apical (BA) transport direction. […] Identical or similar permeabilities in both transport directions indicate passive permeation, vectorial permeability points to additional active transport mechanisms. Higher PEBA than PEAB (PEBA/PEAB>5) indicates the involvement of active efflux mediated by MDR1 P-gp, which might compromises the goal to achieve sufficient brain exposure. Therefore this assay provides valuable support for selection of compounds applicable for further in vivo testing. High permeability not limited by efflux at the blood brain barrier is a favourable characteristic for compounds that are to be used for drugs acting primarily in the CNS
D. Assessment of Efflux in Madin-Darby Canine Kidney (MDCK) Cells Transfected with the Human MDR1 Gene
Apparent permeability coefficients (PE) of the compounds across the MDCK-MDR1 cell monolayers are measured (pH 7.4, 37° C.) in apical-to-basal (AB) and basal-to-apical (BA) transport direction. […] The compounds are assigned to permeability/absorption classes by comparison of the AB permeabilities with the AB permeabilities of reference compounds with known in vitro permeability and oral absorption in the human. Identical or similar permeabilities in both transport directions indicate passive permeation, vectorial permeability points to additional active transport mechanisms. Higher PEBA than PEAB indicates the involvement of active efflux mediated by MDR1 P-gp. Active transport is concentration-dependently saturable.
MDCK-MDR1 cells (1-2×10e5 cells/1 cm2 area) are seeded on filter inserts (Costar transwell polycarbonate or PET filters, 0.4 μm pore size) and cultured (DMEM) for 7 days. Subsequently, the MDR1 expression is boosted by culturing the cells with 5 mM sodium butyrate in full medium for 2 days. Compounds are dissolved in appropriate solvent (like DMSO, 1-20 mM stock solutions). Stock solutions are diluted with HTP-4 buffer (128.13 mM NaCl, 5.36 mM KCl, 1 mM MgSO4, 1.8 mM CaCl2, 4.17 mM NaHCO3, 1.19 mM Na2HPO4×7H2O, 0.41 mM NaH2PO4×H2O, 15 mM HEPES, 20 mM glucose, 0.25% BSA, pH 7.4) to prepare the transport solutions (0.1-300 μM compound, final DMSO<=0.5%). The transport solution (TL) is applied to the apical or basolateral donor side for measuring A-B or B-A permeability (3 filter replicates), respectively. The receiver side contains the same buffer as the donor side. Samples are collected at the start and end of experiment from the donor and at various time intervals for up to 2 hours also from the receiver side for concentration measurement by HPLC-MS/MS or scintillation counting. Sampled receiver volumes are replaced with fresh receiver solution.

OX2R [2] = biological target: T2, OX2R (Homo sapiens, UniProt O43614); assay: In vitro OX2R potency as reported in WO2016/034882
T2 sequence (O43614 1-444): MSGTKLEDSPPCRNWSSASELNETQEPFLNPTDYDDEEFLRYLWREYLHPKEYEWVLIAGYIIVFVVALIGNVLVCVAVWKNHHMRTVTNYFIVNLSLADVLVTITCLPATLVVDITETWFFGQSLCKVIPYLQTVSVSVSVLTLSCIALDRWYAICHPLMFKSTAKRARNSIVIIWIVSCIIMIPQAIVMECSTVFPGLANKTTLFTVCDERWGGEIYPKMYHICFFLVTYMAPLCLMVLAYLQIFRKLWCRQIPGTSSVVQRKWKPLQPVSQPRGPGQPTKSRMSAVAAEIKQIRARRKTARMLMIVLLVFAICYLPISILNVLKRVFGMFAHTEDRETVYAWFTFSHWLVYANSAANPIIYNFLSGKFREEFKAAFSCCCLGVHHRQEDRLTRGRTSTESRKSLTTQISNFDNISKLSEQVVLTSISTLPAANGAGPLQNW

OX2R [3] = biological target: T2, OX2R; settings: cited from earlier work
[4] = compared to Example 84 in WO2016/034882
[5] = Table 3 of WO2016/034882, corresponds to pIC50

Compound: C[C@@H](CNc1ncc(C(F)(F)F)cn1)N(C)C(=O)c1cccc(F)c1-c1ncccn1 [Example 9]
- Kb (human Orexin 1 receptor): 0.223 nM
- higher potency (OX1R) (human Orexin 1 receptor; [4]): ~10 fold
- half-life at 1 μM [1]: > 2.17 h
- efflux ratio (human MDR1 P-gp): < 3

Compound: C[C@@H](CNc1ncc(C(F)(F)F)cn1)N(CC1CC1)C(=O)c1cccc(F)c1-n1nccn1 [Example 1]
- Kb (human Orexin 1 receptor): 0.214 nM
- half-life at 1 μM [1]: 1.22 h
- efflux ratio (human MDR1 P-gp): < 3

Compound: CCN(C(=O)c1cnc(C)nc1-c1ccccc1)[C@@H](C)CNc1ncc(Br)cn1 [Example 13]
- Kb (human Orexin 1 receptor): 0.089 nM
- half-life at 1 μM [1]: 1.27 h
- efflux ratio (human MDR1 P-gp): < 3

Compound: CCN(C(=O)c1cccc(F)c1-n1nccn1)[C@@H](C)CNc1ncc(Br)cn1 [Example 4]
- Kb (human Orexin 1 receptor): 0.116 nM
- half-life at 1 μM [1]: > 2.17 h
- efflux ratio (human MDR1 P-gp): < 3

Compound: CCN(C(=O)c1ccc(F)c(F)c1-c1ncccn1)[C@@H](C)CNc1ncc(C(F)(F)F)cn1 [Example 8]
- Kb (human Orexin 1 receptor): 0.014 nM
- higher potency (OX1R) (human Orexin 1 receptor; [4]): over 150 fold
- half-life at 1 μM [1]: > 2.17 h
- efflux ratio (human MDR1 P-gp): < 3

Compound: CC[C@@H](CNc1cnc(C(F)(F)F)cn1)N(C)C(=O)c1cc(Cl)ccc1-n1nccn1 [Ex 40 in WO2016/ 034882]
- OX2R IC50/OX1R IC50 (OX2R [2]; Table 1 of WO2016/034882): Table 1: 156

Compound: CCN(C(=O)c1cc(F)cnc1-n1nccn1)[C@@H](C)CNc1ccc(C(F)(F)F)cn1 [Example 12]
- Kb (human Orexin 1 receptor): 0.156 nM
- higher potency (OX1R) (human Orexin 1 receptor; compared to Example 73 in WO2016/034882): approximately 2 fold
- half-life at 1 μM [1]: 0.733 h
- efflux ratio (human MDR1 P-gp): 3 to 5.5

Compound: CCN(C(=O)c1cc(Cl)ccc1-n1nccn1)[C@@H](C)CNc1cnc(C(F)(F)F)cn1 [Example 10]
- Kb (human Orexin 1 receptor): 0.011 nM
- better potency (OX1R) (human Orexin 1 receptor; compared to Example 40 in WO2016/034882): 16 fold
- half-life at 1 μM [1]: 2.17 h
- efflux ratio (human MDR1 P-gp): < 3

Compound: C[C@@H](CNc1ncc(C(F)(F)F)cn1)N(CCF)C(=O)c1cccc(F)c1-n1nccn1 [Example 2]
- Kb (human Orexin 1 receptor): 0.67 nM
- half-life at 1 μM [1]: > 2.17 h
- efflux ratio (human MDR1 P-gp): < 3

Compound: CC[C@@H](CNc1ncc(C(F)(F)F)cn1)N(C)C(=O)c1nc(C)ccc1-n1nccn1 [Ex 46 in WO2016/ 034882]
- OX2R IC50/OX1R IC50 (OX2R [2]; Table 1 of WO2016/034882): 390
- OX2R IC50/OX1R IC50 (OX2R [2]; Table 2 of WO2016/034882): > 312
- OX2R IC50/OX1R IC50 (OX2R [2]; Table 3 of WO2016/034882): 3200
- IC50 (OX2R [3]; Table 2 of WO2016/034882, corresponds to pIC50): > 10000 nM
- OX2R pIC50 (OX2R [3]; Table 2 of WO2016/034882): < 5.0
- IC50 (OX2R [3]; [5]): ≥ 10000 nM
- OX2R pIC50 (OX2R [3]; Table 3 of WO2016/034882): < 5.0

Compound: CCN(C(=O)c1cc(Cl)ccc1-n1nccn1)[C@@H](C)CNc1ncc(C(F)(F)F)cn1 [Example 3]
- Kb (human Orexin 1 receptor): 0.032 nM
- half-life at 1 μM [1]: 2.17 h
- efflux ratio (human MDR1 P-gp): < 3

Compound: CC[C@@H](CNc1ncc(C(F)(F)F)cn1)N(CC)C(=O)c1nc(C)ccc1-n1nccn1 [Ex 73 in WO2016/ 034882]
- IC50 (OX2R [3]; [5]): > 1000 nM
- OX2R pIC50 (OX2R [3]; Table 3 of WO2016/034882): < 6.0

Compound: CCN(C(=O)c1cccc(F)c1-n1nccn1)[C@@H](C)CNc1ncc(C(F)(F)F)cc1C#N [Example 7]
- Kb (human Orexin 1 receptor): 0.021 nM
- half-life at 1 μM [1]: 1.48 h
- efflux ratio (human MDR1 P-gp): < 3

Compound: CC[C@@H](CNc1ncc(C(F)(F)F)cn1)N(C)C(=O)c1c(F)cccc1-n1nccn1 [Ex 91 in WO2016/ 034882]
- half-life at 1 μM [1]: > 2.17 h
- IC50 (OX2R [3]; [5]): ≥ 7590 nM
- OX2R pIC50 (OX2R [3]; Table 3 of WO2016/034882): < 5.1
